Read-outs that look alike come from different tables or passages of the source.
Tests used:
ACK1 = molecular target: T1, ACK1 (Homo sapiens, UniProt Q07912); assay: ACK1 Enzymatic Assay (PGT/autophosphorylation ELISA); assay type: biochemical
T1 construct: a fusion of an N-terminal (His)6 Tag with amino acids 117 to 489 of ACK1; (His)6 (N); made in house; host or cells: baculovirus infected Hi-5 insect cells
Procedure: IC50 values of compounds of the invention may be assessed as follows. The ACK1 kinase assay utilizes a protein expressed in baculovirus infected Hi-5 cells (a fusion of an N-terminal (His)6 Tag with amino acids 117 to 489 of ACK1) purified by affinity chromatography on a Ni-NTA column. The substrate for the reaction is ACK1 itself (autophosphorylation) and poly-Glutamic acid-Tyrosine (PGT (4:1), Sigma catalog #PO275). The PGT is coated to Nunc 96 well plates at 80 μg/mL overnight at 4° C. The morning after coating, the plates are washed twice, and […] reaction buffer (10 mM Hepes, pH 7.6; 20 mM MgCl2; 75 mM NaCl, 0.125% TWEEN20 (polyoxyethylene sorbitan monolaurate); 1 mM DTT) with 5 μM ATP are added to each well. Test compounds are added in […] DMSO, and the reaction is started by addition of […] kinase in assay buffer. The reaction proceeds for 2 h at room temperature. Next, the plates are washed four times, and the level of tyrosine phosphorylation in a given well is quantified by standard ELISA assay utilizing a phosphotyrosine antibody (PY20, Pierce).

LCK = molecular target: T2, LCK (Homo sapiens, UniProt P06239); assay: LCK-Homogeneous Time Resolved Fluorescent (HTRF) Kinase Assay; assay type: biochemical
T2 construct: 15 μL of LCK KD GST (225-509) for a final volume of 40 μL; GST
T2 sequence (P06239 225-509): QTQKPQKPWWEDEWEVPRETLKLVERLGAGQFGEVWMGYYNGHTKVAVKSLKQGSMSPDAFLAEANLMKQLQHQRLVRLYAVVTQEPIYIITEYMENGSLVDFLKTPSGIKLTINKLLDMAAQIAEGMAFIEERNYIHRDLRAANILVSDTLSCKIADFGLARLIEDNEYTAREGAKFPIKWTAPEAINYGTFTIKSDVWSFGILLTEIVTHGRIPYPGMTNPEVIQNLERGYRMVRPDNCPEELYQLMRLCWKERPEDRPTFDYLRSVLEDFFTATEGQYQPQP
Procedure: LCK-Homogeneous Time Resolved Fluorescent (HTRF) Kinase Assay
The LCK HTRF assay begins with LCK in the presence of ATP phosphorylating the biotinylated peptide Gastrin. The reaction incubates for 90 min. To quench the assay detection reagents are added which both stop the reaction by diluting out the enzyme and chelating the metals due to the presence of EDTA. Once the detection reagents are added the assay incubates for 30 min to allow for equilibration of the detection reagents.
Buffer conditions are as follows: 50 mM HEPES pH 7.5, 50 mM NaCl, 20 mM MgCl2, 5 mM MnCl2, 2 mM DTT, 0.05% BSA.
The assay is quenched and stopped with 160 μL of a detection reagent. Detection reagents are as follows: Buffer made of 50 mM Tris, pH 7.5, 100 mM NaCl, 3 mM EDTA, 0.05% BSA, 0.1% Tween20.
The assay plate is read in either a Discovery or a RubyStar.

C8 cells = assay: ACK1 Cell Based Assay (survival under low serum, Cytotox One); conditions: read-out: ACK1 Cell-based IC50
Procedure: ACK1 Cell Based Assay The ACK1 cell based assay is designed to find inhibitors of ACK1 kinase activity which would be prime candidates for the development of anticancer drugs. […] After 20 to 24 h incubation at 37° C. and 5% CO2, cell viability is determined using the Cytotox One kit (Promega) according to the manufacturer's instructions.

[1] = ACK1-dependent C8 cells, 0.125% FCS, 20 to 24 h

T1 sequence (Q07912 117-489): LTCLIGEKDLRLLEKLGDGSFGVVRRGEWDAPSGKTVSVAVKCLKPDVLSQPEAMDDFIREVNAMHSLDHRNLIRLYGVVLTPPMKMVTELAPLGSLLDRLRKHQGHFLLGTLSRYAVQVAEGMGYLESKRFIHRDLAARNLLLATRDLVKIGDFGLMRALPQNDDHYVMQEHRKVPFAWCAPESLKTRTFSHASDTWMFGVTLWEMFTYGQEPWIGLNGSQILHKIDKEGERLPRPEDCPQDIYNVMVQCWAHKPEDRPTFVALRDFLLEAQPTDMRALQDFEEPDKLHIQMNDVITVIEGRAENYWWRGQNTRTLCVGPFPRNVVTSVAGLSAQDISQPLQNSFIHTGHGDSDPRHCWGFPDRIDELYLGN

`COC(C)(C)CCn1nc(Nc2c(C)cccc2C)c2cnc(Nc3ccc(N4CCN(C)CC4)cc3)nc21` [Compound 55, N^3-(2,6-Dimethyl-phenyl)-1-(3-methoxy-3-methyl-butyl)-N-6-[4-(methylpiperazin-1-yl)phenyl]-1H-pyrazolo[3,4-d]pyrimidine-3,6-diamine] showed a Ki (ACK1) of under 10 nM, a Ki (LCK) of under 10 nM and an IC50 (C8 cells; [1]) of 10 to 100 nM.
`COC(C)(C)CCn1nc(Nc2c(C)cccc2C)c2cnc(Nc3ccc(OCCCN4CCCCC4)c(F)c3)nc21` [Compound 57] showed a Ki (ACK1) of 10 to 100 nM, a Ki (LCK) of 10 to 100 nM and an IC50 (C8 cells; [1]) of 10 to 100 nM.
`COC(C)(C)CCn1nc(Nc2c(C)cccc2C)c2ccc(Nc3ccccc3)cc21` [Compound 59] showed a Ki (ACK1) of under 10 nM, a Ki (LCK) of under 10 nM and an IC50 (C8 cells; [1]) of 10 to 100 nM.
In the case of `COC(C)(C)CCn1nc(Nc2c(C)cccc2C)c2ccc(Nc3ccc(N4CC(C)NC(C)C4)cc3)cc21` (stereo not drawn) [Compound 60, N^3-(2,6-Dimethylphenyl)-1-N^6-(4-(3,5-dimethylpiperazin-1-yl)phenyl)-1-(3-methoxy-3-methylbutyl)-1H-indazole-3,6-diamine], the Ki (ACK1) is reported as under 10 nM, the Ki (LCK) is reported as under 10 nM and the IC50 (C8 cells; [1]) is reported as 10 to 100 nM.
`Cc1cccc(C)c1Nc1nn(CC2CCOCC2)c2nc(Nc3ccc(N4CCNCC4)cc3)ncc12` [Compound 61] showed a Ki (ACK1) of under 10 nM, a Ki (LCK) of under 10 nM and an IC50 (C8 cells; [1]) of under 10 nM.
Compound `Cc1cccc(C)c1Nc1nn(CC2CCOCC2)c2nc(Nc3ccc(OCCCN4CCCCC4)c(F)c3)ncc12` [Compound 62] has a Ki (ACK1) of under 10 nM, a Ki (LCK) of under 10 nM and an IC50 (C8 cells; [1]) of 10 to 100 nM.
With `COC[C@H]1CCCN1CCCn1nc(Nc2c(C)cccc2C)c2ccc(Nc3ccc(N4CCNCC4)cc3)cc21` [Compound 67, (R)—N^3-(2,6-Dimethylphenyl)-1-(3-(2-(methoxymethyl)pyrrolidin-1-yl)propyl)-N^6-(4-piperazin-1-yl)phenyl-1H-indazole-3,6-diamine] the Ki (ACK1) was under 10 nM, the Ki (LCK) was under 10 nM and the IC50 (C8 cells; [1]) was 10 to 100 nM.
Compound `COC(C)(C)CCn1nc(Nc2ccccc2)c2cnc(Nc3ccccc3)nc21` [Compound 74, 1-(3-Methoxy-3-methyl-butyl)-N^3, N^6-diphenyl-1H-pyrazolo[3,4-d]pyrimidine-3,6-diamine] has a Ki (ACK1) of over 100 nM, a Ki (LCK) of over 100 nM and an IC50 (C8 cells) of over 100 nM.
For `COC(C)(C)CCn1nc(Nc2ccccc2)c2cnc(Nc3ccc(N4CCN(C)CC4)cc3)nc21` [Compound 75], the Ki (ACK1) was over 100 nM, the Ki (LCK) was 10 to 100 nM and the IC50 (C8 cells) was over 100 nM.
Compound `COC(C)(C)CCn1nc(Nc2c(C)cc(C)cc2C)c2cnc(Nc3ccccc3)nc21` [Compound 76, 1-(3-Methoxy-3-methyl-butyl)-N^6-phenyl-N^3-(2,4,6-trimethyl-phenyl)-1H-pyrazolo[3,4-d]pyrimidine-3,6-diamine] has a Ki (ACK1) of over 100 nM, a Ki (LCK) of under 10 nM and an IC50 (C8 cells) of over 100 nM.
For `COC(C)(C)CCn1nc(Nc2c(C)cc(C)cc2C)c2cnc(Nc3ccc(N4CCN(C)CC4)cc3)nc21` [Compound 77], the Ki (ACK1) was 10 to 100 nM, the Ki (LCK) was under 10 nM and the IC50 (C8 cells) was 10 to 100 nM.
In the case of `COC(C)(C)CCn1nc(Nc2c(C)cc(F)cc2C)c2cnc(Nc3ccccc3)nc21` [Compound 78, N^3-(4-Fluoro-2,6-dimethyl-phenyl)-1-(3-methoxy-3-methyl-butyl)-N^6-phenyl-1H-pyrazolo[3,4-d]pyrimidine-3,6-diamine], the Ki (ACK1) is reported as 10 to 100 nM, the Ki (LCK) is reported as under 10 nM and the IC50 (C8 cells) is reported as over 100 nM.
For `COC(C)(C)CCn1nc(Nc2c(C)cc(F)cc2C)c2cnc(Nc3ccc(N4CCN(C)CC4)cc3)nc21` [Compound 79, N^3-(4-Fluoro-2,6-dimethyl-phenyl)-1-(3-methoxy-3-methyl-butyl)-N^6-[4-(4-methyl-piperazin-1-yl)-phenyl]-1H-pyrazolo[3,4-d]pyrimidine-3,6-diamine], the Ki (ACK1) was 10 to 100 nM, the Ki (LCK) was under 10 nM and the IC50 (C8 cells; [1]) was 10 to 100 nM.
`COC(C)(C)CCn1nc(Nc2c(Cl)cccc2Cl)c2ccc(Nc3ccc(N4CCN(C(=O)OCC5c6ccccc6-c6ccccc65)CC4)cc3)cc21` [Compound 81, (9H-Fluoren-9-yl)methyl 4-(4-(3-(2,6-dichlorophenylamino)-1-(3-methoxy-3-methyl-butyl)-1H-indazol-6-ylamino)phenyl)piperazine-1-carboxylate] showed a Ki (ACK1) of 10 to 100 nM, a Ki (LCK) of under 10 nM and an IC50 (C8 cells) of over 100 nM.
Compound `COC(C)(C)CCn1nc(Nc2c(Cl)cccc2Cl)c2cnc(Nc3ccc(OCCN4CCCC4)c(F)c3)nc21` [Compound 82, N^3-(2,6-Dichlorophenyl)-N^6-(3-fluoro-4-(2-(pyrrolidin-1-yl)ethoxy)phenyl)-1-(3-methoxy-3-methylbutyl)-1H-pyrazolo[3,4-d]pyrimidine-3,6-diamine] has a Ki (ACK1) of under 10 nM, a Ki (LCK) of under 10 nM and an IC50 (C8 cells) of 10 to 100 nM.
In the case of `COC(C)(C)CCn1nc(Nc2c(Cl)cccc2Cl)c2ccc(Nc3ccc(N4CCNCC4)cc3)cc21` [Compound 84], the Ki (ACK1) is reported as 10 to 100 nM, the Ki (LCK) is reported as under 10 nM and the IC50 (C8 cells; [1]) is reported as 10 to 100 nM.
`C=CCCn1nc(Nc2c(Cl)cccc2Cl)c2cnc(Nc3ccccc3)nc21` [Compound 87, 1-(But-3-enyl)-N^3-(2,6-dichlorophenyl)-N^6-phenyl-1H-pyrazolo[3,4-d]pyrimidine-3,6-diamine] showed a Ki (ACK1) of 10 to 100 nM, a Ki (LCK) of under 10 nM and an IC50 (C8 cells; [1]) of over 100 nM.
Work on `OCC(O)CCn1nc(Nc2c(Cl)cccc2Cl)c2cnc(Nc3ccccc3)nc21` (stereo not drawn) [Compound 88, 4-(3-(2,6-dichlorophenylamino)-6-(phenylamino)-1H-pyrazolo[3,4-d]pyrimidin-1-yl)butane-1,2-diol] yielded a Ki (ACK1) of 10 to 100 nM, a Ki (LCK) of under 10 nM and an IC50 (C8 cells; [1]) of 10 to 100 nM.
Compound `CN(C)CCCn1nc(Nc2c(Cl)cccc2Cl)c2cnc(Nc3ccccc3)nc21` [Compound 89, N^3-(2,6-Dichlorophenyl)-1-(3-(dimethylamino)propyl)-N^6-phenyl-1H-pyrazolo[3,4-d]pyrimidine-3,6-diamine] has a Ki (ACK1) of under 10 nM, a Ki (LCK) of under 10 nM and an IC50 (C8 cells; [1]) of 10 to 100 nM.
With `Clc1cccc(Cl)c1Nc1nn(CCC2CCNCC2)c2nc(Nc3ccccc3)ncc12` [Compound 94, N^3-(2,6-dichlorophenyl)-N^6-phenyl-1-(2-(piperidin-4-yl)ethyl)-1H-pyrazolo[3,4-d]pyrimidine-3,6-diamine] the Ki (ACK1) was 10 to 100 nM, the Ki (LCK) was under 10 nM and the IC50 (C8 cells; [1]) was over 100 nM.
With “(R)—N^3-(2,6-Dimethylphenyl)-1-(3-(2-(methoxymethyl)pyrrolidin-1-yl)propyl)-1H-indazole-3,6-diamine [Compound 68]” the Ki (ACK1) was over 100 nM, the Ki (LCK) was 10 to 100 nM and the IC50 (C8 cells; [1]) was over 100 nM.
“(R)—N^3-(2,6-Dimethylphenyl)-1-(3-(2-(methoxymethyl)pyrrolidin-1-yl)propyl)-N^6-phenyl-1H-indazole-3,6-diamine [Compound 66]” showed a Ki (ACK1) of over 100 nM, a Ki (LCK) of under 10 nM and an IC50 (C8 cells; [1]) of over 100 nM.
“(R)—N^3-(2,6-Dimethylphenyl)-N^6-(4-fluorophenyl)-1-(3-(2-(methoxymethyl)pyrrolidin-1-yl)propyl)-1H-indazole-3,6-diamine [Compound 65]” was tested, and the Ki (ACK1) was over 100 nM, the Ki (LCK) was under 10 nM and the IC50 (C8 cells; [1]) was over 100 nM.
“Ethyl-2-(3-(2,6-dimethylphenylamino)-6-(phenylamino)-1H-indazole-1-yl)acetate [Compound 64]” gave a Ki (ACK1) of 10 to 100 nM, a Ki (LCK) of under 10 nM and an IC50 (C8 cells; [1]) of over 100 nM.
“N^3-(2,6-Dimethylphenyl)-1-(3-methoxy-3-methylbutyl)-1H-indazole-3,6-diamine [Compound 58]” showed a Ki (ACK1) of over 100 nM, a Ki (LCK) of under 10 nM and an IC50 (C8 cells; [1]) of over 100 nM.
For “N^3-(2,6-Dimethylphenyl)-N^6-phenyl-1-((tetrahydro-2H-pyran-4-yl)methyl)-1H-indazole-3,6-diamine [Compound 63]”, the Ki (ACK1) was 10 to 100 nM, the Ki (LCK) was under 10 nM and the IC50 (C8 cells; [1]) was over 100 nM.
Compound “N^3-(2,6-dichlorophenyl)-1-(3-methoxy-3-methylbutyl)-N^6-[4-(4-methyl-piperazin-1-yl)-phenyl]-1H-indazole-3,6-diamine [Compound 80]” has a Ki (ACK1) of under 10 nM, a Ki (LCK) of under 10 nM and an IC50 (C8 cells; [1]) of 10 to 100 nM.
With “N^3-(2,6-dimethylphenyl)-1-(2-(4-methylpiperazin-1-yl)ethyl)-N^6-phenyl-1H-indazole-3,6-diamine [Compound 72]” the Ki (ACK1) was 10 to 100 nM, the Ki (LCK) was under 10 nM and the IC50 (C8 cells; [1]) was over 100 nM.
